Among the data in ChEMBL document CHEMBL5696441 (Nat Chem Biol, 2011) are Activity and IC50 values, retold here.

Molecules are shown by their SMILES.

Experiment [1] deals with Epidermal growth factor receptor (Homo sapiens), P00533 [UNDEFINED MUTATION]. Nature of the experiment: Inhibition of EGFR L747-S752del/P753S mutant (unknown origin) assessed as remaining activity at 1 uM by Kinome scan method relative to control.
Experiment [2] deals with Cyclin-dependent kinase 15 (Homo sapiens) (UniProt Q96Q40). The experiment is described as follows: Inhibition of PFTAIRE2 (unknown origin) assessed as remaining activity at 1 uM by Kinome scan method relative to control.
The target of experiment [3] is MAP kinase-interacting serine/threonine-protein kinase 1 (Homo sapiens) (UniProt Q9BUB5). The experiment is described as follows: Inhibition of MKNK1 (unknown origin) assessed as remaining activity at 1 uM by Kinome scan method relative to control.
The target of experiment [4] is Death-associated protein kinase 1 (Homo sapiens) (UniProt P53355). Nature of the experiment: Inhibition of human DAPK1 assessed as residual activity at 1 uM using RBER-GSK3 as substrate in presence of 33P-ATP by ProQinase assay relative to control.
The subject of experiment [5] is Epidermal growth factor receptor (Homo sapiens), P00533 [L861Q]. Nature of the experiment: Inhibition of EGFR L861Q mutant (unknown origin) assessed as remaining activity at 1 uM by Kinome scan method relative to control.
Experiment [6] has as its system Serine/threonine-protein kinase B-raf (Homo sapiens), P15056 [V600E]. Nature of the experiment: Inhibition of human BRAF V600E mutant assessed as residual activity at 1 uM using MEK1-K97M as substrate in presence of 33P-ATP by ProQinase assay relative to control.
Experiment [7] deals with ALK tyrosine kinase receptor (Homo sapiens) (UniProt Q9UM73). The experiment is described as follows: Inhibition of human ALK assessed as residual activity at 1 uM using PolyEY as substrate in presence of 33P-ATP by ProQinase assay relative to control.
In experiment [8] the target is Serine/threonine-protein kinase SIK3 (Homo sapiens) (UniProt Q9Y2K2). The experiment is described as follows: Inhibition of QSK (unknown origin) assessed as remaining activity at 1 uM by Kinome scan method relative to control.
For experiment [9], the target named is Serine/threonine-protein kinase Nek9 (Homo sapiens) (UniProt Q8TD19). Nature of the experiment: Inhibition of NEK9 (unknown origin) assessed as remaining activity at 1 uM by Kinome scan method relative to control.
Experiment [10] deals with cAMP-dependent protein kinase catalytic subunit PRKX (Homo sapiens) (UniProt P51817). The experiment is described as follows: Inhibition of PRKX (unknown origin) assessed as remaining activity at 1 uM by Kinome scan method relative to control.
Experiment [11] addresses Mitogen-activated protein kinase kinase kinase 14 (Homo sapiens) (UniProt Q99558). Nature of the experiment: Inhibition of human NIK assessed as residual activity at 1 uM using RBER-CHKtide as substrate in presence of 33P-ATP by ProQinase assay relative to control.
Experiment [12] concerns the target Rhodopsin kinase GRK7 (Homo sapiens) (UniProt Q8WTQ7). Nature of the experiment: Inhibition of GRK7 (unknown origin) assessed as remaining activity at 1 uM by Kinome scan method relative to control.
For experiment [13], the target named is Serine/threonine-protein kinase 25 (Homo sapiens) (UniProt O00506). Nature of the experiment: Inhibition of human STK25 assessed as residual activity at 1 uM using casein as substrate in presence of 33P-ATP by ProQinase assay relative to control.
The target in experiment [14] is Ribosomal protein S6 kinase alpha-1 (Homo sapiens) (UniProt Q15418). Nature of the experiment: Inhibition of human RPS6KA1 assessed as residual activity at 1 uM using RBER-CHKtide as substrate in presence of 33P-ATP by ProQinase assay relative to control.
For experiment [15], the system named is Fibroblast growth factor receptor 3 (Homo sapiens), P22607 [G697C]. The experiment is described as follows: Inhibition of FGFR3 G697C mutant (unknown origin) assessed as remaining activity at 1 uM by Kinome scan method relative to control.
Experiment [16] deals with CDK9/Cyclin K (Homo sapiens) (UniProt P50750+O75909). The experiment is described as follows: Inhibition of human CDK9/CycK assessed as residual activity at 1 uM using RBER-CHKtide as substrate in presence of 33P-ATP by ProQinase assay relative to control. The experiment is classed as protein-complex assay.
In experiment [17] the target is Serine/threonine-protein kinase ULK3 (Homo sapiens) (UniProt Q6PHR2). The experiment is described as follows: Inhibition of ULK3 (unknown origin) assessed as remaining activity at 1 uM by Kinome scan method relative to control.
Experiment [18] concerns the target Mitogen-activated protein kinase kinase kinase 8 (Homo sapiens) (UniProt P41279). The experiment is described as follows: Inhibition of human COT assessed as residual activity at 1 uM using RBER-CHKtide as substrate in presence of 33P-ATP by ProQinase assay relative to control.
Experiment [19] addresses BDNF/NT-3 growth factors receptor (Homo sapiens) (UniProt Q16620). Nature of the experiment: Inhibition of human TRKB assessed as residual activity at 1 uM using polyEY as substrate in presence of 33P-ATP by ProQinase assay relative to control.
Experiment [20] deals with Mitogen-activated protein kinase kinase kinase 5 (Homo sapiens) (UniProt Q99683). Nature of the experiment: Inhibition of human ASK1 assessed as residual activity at 1 uM using RBER-GSK3(14-27) as substrate in presence of 33P-ATP by ProQinase assay relative to control.
Experiment [21] has as its target T1, Serine/threonine-protein kinase Nek2 (Homo sapiens) (UniProt P51955).
T1 sequence (whole entry): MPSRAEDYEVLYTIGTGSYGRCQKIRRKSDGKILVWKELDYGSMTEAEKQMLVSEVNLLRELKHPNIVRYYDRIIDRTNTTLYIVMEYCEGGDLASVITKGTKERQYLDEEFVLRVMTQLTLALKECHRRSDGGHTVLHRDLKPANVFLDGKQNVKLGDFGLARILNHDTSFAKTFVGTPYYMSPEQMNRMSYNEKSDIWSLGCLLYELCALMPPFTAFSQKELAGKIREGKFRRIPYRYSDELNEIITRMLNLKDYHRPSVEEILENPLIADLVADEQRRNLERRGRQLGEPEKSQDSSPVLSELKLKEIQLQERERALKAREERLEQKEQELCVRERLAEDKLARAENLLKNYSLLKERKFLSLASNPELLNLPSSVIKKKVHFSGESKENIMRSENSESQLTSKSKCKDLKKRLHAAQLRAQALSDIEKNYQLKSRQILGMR
Nature of the experiment: Inhibition of human NEK2 assessed as residual activity at 1 uM using RB-CTF as substrate in presence of 33P-ATP by ProQinase assay relative to control.

The target of experiment [22] is Tyrosine-protein kinase Lck (Homo sapiens) (UniProt P06239). Nature of the experiment: Inhibition of human LCK assessed as residual activity at 1 uM using polyEY as substrate in presence of 33P-ATP by ProQinase assay relative to control.
Experiment [23] is described as follows: Anti-inflammatory activity against human derived medium respond PBMC cells assessed as inhibition in stimulated IL-10 cytokine release incubated for 2 hrs in the presence of LPS/SEB/aCD28 by Luminex based sandwich immunoassay. In kind it is functional, cell-based.
Experiment [24] has as its target Cyclin-dependent kinase-like 2 (Homo sapiens) (UniProt Q92772). The experiment is described as follows: Inhibition of CDKL2 (unknown origin) assessed as remaining activity at 1 uM by Kinome scan method relative to control.

Mitogen-activated protein kinase kinase kinase 14 (Homo sapiens), sequence (Q99558 whole entry, looked up): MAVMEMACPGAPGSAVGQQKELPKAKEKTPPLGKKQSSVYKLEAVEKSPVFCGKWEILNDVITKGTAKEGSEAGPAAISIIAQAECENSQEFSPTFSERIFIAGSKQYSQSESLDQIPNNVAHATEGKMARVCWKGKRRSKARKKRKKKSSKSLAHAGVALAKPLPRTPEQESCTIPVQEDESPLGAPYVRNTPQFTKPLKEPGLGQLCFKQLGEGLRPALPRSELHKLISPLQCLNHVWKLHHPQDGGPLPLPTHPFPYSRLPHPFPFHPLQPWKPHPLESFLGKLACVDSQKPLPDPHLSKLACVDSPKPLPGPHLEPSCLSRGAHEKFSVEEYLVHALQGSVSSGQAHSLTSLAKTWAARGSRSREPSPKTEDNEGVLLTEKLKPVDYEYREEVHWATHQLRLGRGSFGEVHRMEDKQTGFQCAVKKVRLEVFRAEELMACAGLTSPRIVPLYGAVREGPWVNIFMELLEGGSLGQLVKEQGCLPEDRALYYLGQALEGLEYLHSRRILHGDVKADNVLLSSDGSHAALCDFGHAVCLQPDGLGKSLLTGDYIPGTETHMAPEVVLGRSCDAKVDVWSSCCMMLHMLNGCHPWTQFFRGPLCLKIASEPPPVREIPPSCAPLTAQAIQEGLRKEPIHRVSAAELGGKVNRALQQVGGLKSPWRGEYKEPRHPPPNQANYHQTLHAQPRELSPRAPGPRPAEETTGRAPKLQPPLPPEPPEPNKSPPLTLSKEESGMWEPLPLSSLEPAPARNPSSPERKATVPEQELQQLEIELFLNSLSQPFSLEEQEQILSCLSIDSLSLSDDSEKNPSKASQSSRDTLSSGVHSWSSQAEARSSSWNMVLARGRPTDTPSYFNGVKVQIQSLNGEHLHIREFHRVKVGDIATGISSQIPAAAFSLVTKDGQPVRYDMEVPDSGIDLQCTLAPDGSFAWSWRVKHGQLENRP
Cyclin-dependent kinase 15 (Homo sapiens), sequence (Q96Q40 whole entry): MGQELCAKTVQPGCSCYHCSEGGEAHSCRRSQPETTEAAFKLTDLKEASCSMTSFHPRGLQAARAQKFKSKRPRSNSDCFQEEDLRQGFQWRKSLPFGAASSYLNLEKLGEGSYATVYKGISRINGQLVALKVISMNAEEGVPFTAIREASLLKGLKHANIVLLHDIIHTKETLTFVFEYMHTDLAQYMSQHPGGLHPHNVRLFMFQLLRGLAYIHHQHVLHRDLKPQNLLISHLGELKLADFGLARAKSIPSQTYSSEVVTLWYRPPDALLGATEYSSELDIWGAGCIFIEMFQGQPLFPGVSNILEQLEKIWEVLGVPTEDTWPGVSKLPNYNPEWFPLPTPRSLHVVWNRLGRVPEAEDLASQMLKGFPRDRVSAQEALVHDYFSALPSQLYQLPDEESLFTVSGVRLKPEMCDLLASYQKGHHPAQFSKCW
Serine/threonine-protein kinase ULK3 (Homo sapiens), sequence (Q6PHR2 whole entry): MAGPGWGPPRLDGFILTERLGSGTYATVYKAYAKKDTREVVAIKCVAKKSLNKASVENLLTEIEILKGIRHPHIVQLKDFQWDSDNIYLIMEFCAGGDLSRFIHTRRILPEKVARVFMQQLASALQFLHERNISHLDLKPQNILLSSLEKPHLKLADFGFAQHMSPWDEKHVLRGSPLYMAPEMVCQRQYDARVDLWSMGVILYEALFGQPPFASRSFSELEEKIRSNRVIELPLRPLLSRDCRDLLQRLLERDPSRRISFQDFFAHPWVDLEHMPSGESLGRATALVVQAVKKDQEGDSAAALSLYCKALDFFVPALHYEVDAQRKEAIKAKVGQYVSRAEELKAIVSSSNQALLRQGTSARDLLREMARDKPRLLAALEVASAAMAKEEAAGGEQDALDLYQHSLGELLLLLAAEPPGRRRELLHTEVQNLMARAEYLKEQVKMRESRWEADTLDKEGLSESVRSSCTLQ
BDNF/NT-3 growth factors receptor (Homo sapiens), sequence (Q16620 32-822 limits assumed): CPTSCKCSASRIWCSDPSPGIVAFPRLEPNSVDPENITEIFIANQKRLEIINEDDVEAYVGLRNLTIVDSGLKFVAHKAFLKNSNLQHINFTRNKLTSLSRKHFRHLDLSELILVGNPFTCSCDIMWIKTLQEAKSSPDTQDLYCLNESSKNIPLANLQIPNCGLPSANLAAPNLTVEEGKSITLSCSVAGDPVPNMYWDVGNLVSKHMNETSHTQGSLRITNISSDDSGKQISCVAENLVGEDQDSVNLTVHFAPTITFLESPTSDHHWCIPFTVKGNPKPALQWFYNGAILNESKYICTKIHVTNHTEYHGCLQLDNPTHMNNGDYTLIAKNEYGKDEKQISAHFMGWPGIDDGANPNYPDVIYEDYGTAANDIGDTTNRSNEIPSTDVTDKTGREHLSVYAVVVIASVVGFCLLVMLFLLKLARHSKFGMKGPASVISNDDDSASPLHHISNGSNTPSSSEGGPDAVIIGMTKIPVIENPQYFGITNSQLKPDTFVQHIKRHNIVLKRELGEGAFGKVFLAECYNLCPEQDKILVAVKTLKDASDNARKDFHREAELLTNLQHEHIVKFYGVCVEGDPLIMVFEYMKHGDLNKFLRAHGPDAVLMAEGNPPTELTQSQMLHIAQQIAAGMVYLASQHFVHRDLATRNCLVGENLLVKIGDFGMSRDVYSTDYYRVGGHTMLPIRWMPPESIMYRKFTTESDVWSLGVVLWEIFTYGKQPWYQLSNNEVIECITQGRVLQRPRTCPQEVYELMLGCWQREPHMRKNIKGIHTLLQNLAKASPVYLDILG
Serine/threonine-protein kinase 25 (Homo sapiens), sequence (O00506 whole entry, looked up): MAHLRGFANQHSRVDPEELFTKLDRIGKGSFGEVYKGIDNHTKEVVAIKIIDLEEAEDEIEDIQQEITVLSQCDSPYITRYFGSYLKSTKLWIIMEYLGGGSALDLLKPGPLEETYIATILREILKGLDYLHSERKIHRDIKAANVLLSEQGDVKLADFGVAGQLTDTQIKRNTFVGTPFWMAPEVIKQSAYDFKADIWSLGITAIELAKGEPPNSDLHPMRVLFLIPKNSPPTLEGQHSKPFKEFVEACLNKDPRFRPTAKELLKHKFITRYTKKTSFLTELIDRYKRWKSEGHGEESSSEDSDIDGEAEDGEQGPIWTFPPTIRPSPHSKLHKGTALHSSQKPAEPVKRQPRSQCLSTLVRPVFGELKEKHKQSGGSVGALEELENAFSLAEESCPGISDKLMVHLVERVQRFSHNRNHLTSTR
Fibroblast growth factor receptor 3 (Homo sapiens), P22607 [G697C], sequence (P22607 whole entry G697C): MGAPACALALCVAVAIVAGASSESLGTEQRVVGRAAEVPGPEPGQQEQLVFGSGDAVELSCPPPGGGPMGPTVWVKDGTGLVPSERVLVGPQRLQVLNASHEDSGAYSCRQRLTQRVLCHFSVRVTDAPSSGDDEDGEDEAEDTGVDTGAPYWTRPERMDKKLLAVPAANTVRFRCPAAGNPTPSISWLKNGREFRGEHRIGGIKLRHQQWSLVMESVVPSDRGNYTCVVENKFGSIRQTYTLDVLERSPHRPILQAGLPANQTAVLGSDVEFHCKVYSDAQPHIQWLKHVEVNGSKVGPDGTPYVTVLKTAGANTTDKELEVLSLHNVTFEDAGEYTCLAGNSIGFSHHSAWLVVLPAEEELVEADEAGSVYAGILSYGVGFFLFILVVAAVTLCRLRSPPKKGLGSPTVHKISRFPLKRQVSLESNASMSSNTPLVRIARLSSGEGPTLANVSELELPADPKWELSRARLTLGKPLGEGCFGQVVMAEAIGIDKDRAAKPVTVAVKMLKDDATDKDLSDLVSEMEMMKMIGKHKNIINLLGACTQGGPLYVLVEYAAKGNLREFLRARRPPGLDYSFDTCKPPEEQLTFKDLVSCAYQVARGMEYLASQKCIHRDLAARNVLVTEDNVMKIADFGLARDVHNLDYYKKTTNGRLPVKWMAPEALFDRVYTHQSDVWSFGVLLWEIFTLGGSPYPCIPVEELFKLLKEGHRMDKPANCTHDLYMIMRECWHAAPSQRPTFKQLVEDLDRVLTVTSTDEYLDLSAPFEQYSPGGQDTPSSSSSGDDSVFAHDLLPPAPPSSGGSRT
MAP kinase-interacting serine/threonine-protein kinase 1 (Homo sapiens), sequence (Q9BUB5 whole entry, looked up): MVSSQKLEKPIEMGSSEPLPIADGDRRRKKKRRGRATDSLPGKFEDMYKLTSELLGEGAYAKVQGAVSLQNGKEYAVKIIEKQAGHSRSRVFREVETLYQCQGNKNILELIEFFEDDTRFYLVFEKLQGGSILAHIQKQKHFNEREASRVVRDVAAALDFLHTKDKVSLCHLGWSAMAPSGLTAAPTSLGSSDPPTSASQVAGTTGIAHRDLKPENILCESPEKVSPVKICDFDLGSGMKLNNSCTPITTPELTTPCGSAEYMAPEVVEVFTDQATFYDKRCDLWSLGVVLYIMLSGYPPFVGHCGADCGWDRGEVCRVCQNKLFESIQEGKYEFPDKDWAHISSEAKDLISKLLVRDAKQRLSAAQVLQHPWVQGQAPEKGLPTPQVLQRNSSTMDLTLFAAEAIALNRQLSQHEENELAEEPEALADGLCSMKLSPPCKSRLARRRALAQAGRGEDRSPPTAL
Tyrosine-protein kinase Lck (Homo sapiens), sequence (P06239 2-509 limits assumed): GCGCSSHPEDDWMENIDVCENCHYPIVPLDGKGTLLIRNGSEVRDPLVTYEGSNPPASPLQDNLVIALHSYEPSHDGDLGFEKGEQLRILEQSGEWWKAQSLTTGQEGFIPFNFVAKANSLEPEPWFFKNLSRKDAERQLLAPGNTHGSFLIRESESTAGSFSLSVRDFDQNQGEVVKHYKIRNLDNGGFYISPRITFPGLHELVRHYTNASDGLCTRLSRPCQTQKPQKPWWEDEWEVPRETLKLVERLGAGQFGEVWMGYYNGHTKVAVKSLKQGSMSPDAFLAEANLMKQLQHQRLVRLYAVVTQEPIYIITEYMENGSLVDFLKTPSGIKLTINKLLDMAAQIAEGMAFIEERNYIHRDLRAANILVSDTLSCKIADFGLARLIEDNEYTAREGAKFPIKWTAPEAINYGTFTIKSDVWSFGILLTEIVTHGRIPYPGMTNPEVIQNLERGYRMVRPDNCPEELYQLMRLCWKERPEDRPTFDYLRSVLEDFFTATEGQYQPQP

Take `O=C1c2ccc(Nc3ccc(F)cc3F)cc2CCc2ccc(OC[C@H](O)CO)cc21` [Skepinone-L]: the Activity in experiment [1] was found to be 100%; in [2], 85%; in [3] it was 99%; in experiment [4] it was 86%; in [5], 72%; in [6] it was 135%. The Activity worked out at 104% in [7]; 100% in experiment [8]; 89% in experiment [9]; 89% in experiment [10]; 96% in experiment [11]; 100% in experiment [12]. Further, the Activity in [13] is 100%; in [14], 89%; in [15] it was 87%; in experiment [16], 92%; in experiment [17], 100%; in experiment [18] it was 91%. Also, the Activity was 77% in [19]; 103% in experiment [20]; 85% in experiment [21]; 102% in experiment [22]; 100% in [24]. Further, the 50% inhibitory concentration (IC50) in [23] is 60 nM.

One may read the IC50 as the midpoint of a concentration-inhibition curve.
